Measurements reported in the supplement of paper PMC13380429.

Experiments:
Conditions in all cases: 72 h
Caco-2 [1] = test: cell viability relative to DMSO; higher = less toxic
Calu-3 [2] = test: as above
HepG2 [3] = test: as above
U2OS [4] = test: as above
Vero E6 [5] = test: as above
Caco-2 [6] = test: relative viability EC50 (midpoint between 100% and the lowest measured viability); higher = less toxic
Calu-3 [7] = test: as above
HepG2 [8] = test: as above
U2OS [9] = test: as above
Vero E6 [10] = test: as above
Caco-2 [11] = test: drug sensitivity score (DSS) for viability; higher = more toxic; extreme values may be limits of the assay
Calu-3 [12] = test: as above
HepG2 [13] = test: as above
U2OS [14] = test: as above
Vero E6 [15] = test: as above

SMILES | cell viability (Caco-2 [1]; 1 nM) [%] | cell viability (Caco-2 [1]; 10 nM) [%] | cell viability (Caco-2 [1]; 100 nM) [%] | cell viability (Caco-2 [1]; 1000 nM) [%] | cell viability (Caco-2 [1]; 10000 nM) [%] | cell viability (Calu-3 [2]; 1 nM) [%] | cell viability (Calu-3 [2]; 10 nM) [%] | cell viability (Calu-3 [2]; 100 nM) [%] | cell viability (Calu-3 [2]; 1000 nM) [%] | cell viability (Calu-3 [2]; 10000 nM) [%] | cell viability (HepG2 [3]; 1 nM) [%] | cell viability (HepG2 [3]; 10 nM) [%] | cell viability (HepG2 [3]; 100 nM) [%] | cell viability (HepG2 [3]; 1000 nM) [%] | cell viability (HepG2 [3]; 10000 nM) [%] | cell viability (U2OS [4]; 1 nM) [%] | cell viability (U2OS [4]; 10 nM) [%] | cell viability (U2OS [4]; 100 nM) [%] | cell viability (U2OS [4]; 1000 nM) [%] | cell viability (U2OS [4]; 10000 nM) [%] | cell viability (Vero E6 [5]; 1 nM) [%] | cell viability (Vero E6 [5]; 10 nM) [%] | cell viability (Vero E6 [5]; 100 nM) [%] | cell viability (Vero E6 [5]; 1000 nM) [%] | cell viability (Vero E6 [5]; 10000 nM) [%] | relative viability EC50 (Caco-2 [6]) [µM] | relative viability EC50 (Calu-3 [7]) [µM] | relative viability EC50 (HepG2 [8]) [µM] | relative viability EC50 (U2OS [9]) [µM] | relative viability EC50 (Vero E6 [10]) [µM] | drug sensitivity score (Caco-2 [11]) | drug sensitivity score (Calu-3 [12]) | drug sensitivity score (HepG2 [13]) | drug sensitivity score (U2OS [14]) | drug sensitivity score (Vero E6 [15])
CCC(=O)O[C@H]1[C@H](O[C@@H]2[C@@H](C)[C@H](O[C@H]3C[C@@](C)(OC)[C@@H](O)[C@H](C)O3)[C@@H](C)C(=O)O[C@H](CC)[C@@](C)(O)[C@H](O)[C@@H](C)C(=O)[C@H](C)C[C@@]2(C)O)O[C@H](C)C[C@@H]1N(C)C [erythromycin-estolate] | 96.2 | 102 | 97.5 | 99.4 | 97 | 91.3 | 96 | 91.4 | 88.6 | 99 | 99.7 | 104 | 104 | 93.2 | 100 | 98.7 | 98.4 | 101 | 104 | 104 | 96.9 | 95.9 | 101 | 96.4 | 102 | > 10 | > 10 | > 10 | > 10 | > 10 | 0 | 0 | 0 | 0 | 0
C#C[C@]1(OC(C)=O)CC[C@H]2[C@@H]3CCC4=C[C@@H](OC(C)=O)CC[C@@H]4[C@H]3CC[C@@]21C [ethynodiol-diacetate] | 88.6 | 96.9 | 92.4 | 100 | 88.8 | 99.4 | 132 | 103 | 99.6 | 102 | 104 | 104 | 97.3 | 103 | 107 | 99 | 98.7 | 99.6 | 97.6 | 92.4 | 98.6 | 103 | 104 | 98.6 | 108 | > 10 | > 10 | > 10 | > 10 | > 10 | 0 | 0 | 0 | 0 | 0
NCC(CC(=O)O)c1ccccc1 (stereo not given) [fenigam] | 93.3 | 105 | 101 | 87.8 | 112 | 95.4 | 97.6 | 100 | 97.4 | 97.4 | 95.1 | 97.2 | 92.4 | 106 | 110 | 93.5 | 91.1 | 97.3 | 95.4 | 98.3 | 100 | 95.8 | 97.6 | 101 | 111 | > 10 | > 10 | > 10 | > 10 | > 10 | 0 | 0 | 0 | 0 | 0
Nc1nc(=O)n([C@@H]2O[C@H](CO)[C@@H](O)[C@@H]2F)cc1I [fiacitabine] | 93.8 | 99.5 | 90.1 | 84.3 | 93.2 | 93.1 | 102 | 102 | 109 | 96 | 104 | 91.4 | 96.1 | 106 | 83.6 | 99.8 | 104 | 93.6 | 98.6 | 100 | 98.9 | 97.6 | 98.9 | 100 | 96.7 | > 10 | > 10 | > 10 | > 10 | > 10 | 0.2 | 0 | 0.2 | 0 | 0
O=C1OC2(c3ccc(O)cc3Oc3cc(O)ccc32)c2ccccc21 [fluorescein] | 108 | 116 | 117 | 120 | 98.3 | 97.5 | 101 | 101 | 93.6 | 101 | 97.9 | 99.1 | 108 | 94.7 | 97.7 | 99.5 | 101 | 95.2 | 97.7 | 92.5 | 102 | 94.6 | 106 | 107 | 101 | > 10 | > 10 | > 10 | > 10 | > 10 | 0 | 0 | 0 | 0 | 0
NNC(=O)CN1C(=O)CN=C(c2ccccc2)c2cc(Br)ccc21 [gidazepam] | 95.8 | 92.7 | 94.4 | 90.2 | 95.7 | 104 | 99 | 100 | 110 | 98.5 | 106 | 92.2 | 109 | 106 | 106 | 96.5 | 92.2 | 96.8 | 91 | 97.5 | 99.3 | 102 | 93 | 94.1 | 102 | > 10 | > 10 | > 10 | > 10 | > 10 | 0 | 0 | 0 | 0 | 0
N=C(N)N/N=C/c1c(Cl)cccc1Cl [guanaben-acetate] | 94.3 | 95.8 | 87.3 | 95.4 | 90.7 | 91.7 | 94.2 | 91 | 99.7 | 92.1 | 98.1 | 102 | 102 | 93.9 | 101 | 96.9 | 96.2 | 94.6 | 97.7 | 91.5 | 95.3 | 102 | 100 | 97.5 | 97.7 | > 10 | > 10 | > 10 | > 10 | > 10 | 0 | 0 | 0 | 0 | 0
CC(C)(N)C(=O)N[C@H](COCc1ccccc1)C(=O)N1CCC2(CC1)CN(S(C)(=O)=O)c1ccccc12 [ibutamoren] | 93.6 | 98.4 | 99 | 100 | 95.8 | 111 | 108 | 98 | 105 | 91 | 102 | 89.5 | 95.6 | 98 | 95.6 | 100 | 100 | 96.9 | 102 | 100 | 104 | 103 | 98.1 | 95.6 | 108 | > 10 | > 10 | > 10 | > 10 | > 10 | 0 | 0 | 0 | 0 | 0
CCOC(=O)[C@H](CCc1ccccc1)N[C@@H](C)C(=O)N1C(=O)N(C)C[C@H]1C(=O)O [imidapril] | 95.1 | 87.8 | 93.9 | 97.6 | 97.8 | 98.5 | 96.4 | 99.8 | 97.5 | 96.8 | 94.6 | 103 | 104 | 113 | 104 | 101 | 93.4 | 97.7 | 95.7 | 102 | 104 | 98.3 | 98.1 | 101 | 99.9 | > 10 | > 10 | > 10 | > 10 | > 10 | 0 | 0 | 0 | 0 | 0
Cc1ccc2c(c1)c1c(n2CCc2ccc(C)nc2)CCN(C)C1 [latrepirdine] | 106 | 99.4 | 97.9 | 96 | 91 | 97.5 | 97.4 | 101 | 103 | 95.4 | 108 | 102 | 118 | 98.8 | 99.7 | 100 | 100 | 97.7 | 95.8 | 93.7 | 98 | 102 | 104 | 96.5 | 93.6 | > 10 | > 10 | > 10 | > 10 | > 10 | 0 | 0 | 0 | 0 | 0
